Data taken from patent publication US6342217B1, “Radiation enhanced gene therapy for tumors expressing a gene for a viral pyrimidine kinase in the presence of a 5′-halogenated pyrimidine” (Human Gene Therapy Research Institute, priority 1995, dated 2002).

Experiments:
[1] = target: Herpes pyrimidine nucleoside kinase (HSV-tk) (Human herpesvirus 1, UniProt P0DTH5); details: with respect to Herpes pyrimidine nucleoside kinase / HSV-tk; cited from earlier work
[2] = test system: A375TK (transduced with LNStk vector) melanoma cells; experiment: in vitro clonogenic assay of radiosensitivity, HS-tk transduced cells; type: cell-based, human; details: for survival (figure legend): cells transformed with the STK vector, drug and radiation
From the text: (§1) For this example, a vector, termed LNSTK was kindly provided by F. Moolten which contained the HS-tk gene driven by the SV40 early promoter. Other transformation vectors containing the HS-tk retroviral vector such as the LTKOSN.2 vector by the Human Gene Therapy Research Institute (Des Moines, Iowa) are commercially available. Another such vector is the GITkSvNa vector by Genetic Therapy Inc., Gaithersburg, Md. A human A375 melanoma cell line was used because of its ease of growth and rapid colony formation in a clonogenic assay. The survival of A375NV (no vector) and A375TK (transduced with LNStk vector) after 30 GY of gamma-radiation with 0,1, or 10 µg/ml IdC is shown in FIG. 2.
(§2) […] cells were plated in a 100 cm^2 tissue culture dish in free media. The next day drug was added in the appropriate concentration. 48 hours later the cells were irradiated with 30 GY from a 250 KV X-ray machine as a single dose. The cells were then trypsinized and replated at between 2.5×10^2 and 1×10^6 cells per plate in triplicate for each data point. After twelve days the cells were fixed, stained and macroscopic colonies containing […] were counted. Measurements in the graph were corrected for plating efficiency. […] Irradiated A375 NV preincubated with 0,1 or 10 μg/ml of IdC had 18.6, 19.3 and 18.3 percent survival respectively. Irradiated A375 tk cells preincubated with 0,1, or 10 μg/ml of IdC had 15.7, 9.9 and 4.4 percent survival respectively.
(§3) In FIG. 3 another experiment is shown, design similar to Example 1. This experiment compared radio sensitivity of A375 NV and A375 tk cells after preincubation with 10 μg/ml of BrdC for 48 hours before X-ray exposure. […] Survival percentages for cells incubated with 10 μg of BrdC and then irradiated with 30 Gy were divided by the survival fraction of cells incubated with 10 μg/ml of BrdC and then mock irradiated.

[3] = target: T1, Mammalian thymidine kinase (Homo sapiens, UniProt P04183); details: cited from earlier work
T1 sequence (P04183 1-234): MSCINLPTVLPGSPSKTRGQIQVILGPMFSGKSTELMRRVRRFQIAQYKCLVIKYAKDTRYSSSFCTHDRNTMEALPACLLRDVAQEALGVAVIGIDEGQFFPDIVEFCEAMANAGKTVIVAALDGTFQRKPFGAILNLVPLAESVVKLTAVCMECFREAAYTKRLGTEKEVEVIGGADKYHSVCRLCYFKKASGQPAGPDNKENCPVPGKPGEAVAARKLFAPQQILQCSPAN

[4] = test system: A375NV (no vector) melanoma cells; experiment: in vitro clonogenic assay of radiosensitivity, non-transduced cells; type: cell-based, human
From the text: as §1, §2, §3

[5] = target: mammalian deoxycytidine kinase (Homo sapiens, UniProt P27707); details: with respect to mammalian deoxycytidine kinase; cited from earlier work
Sequence of mammalian deoxycytidine kinase (P27707 whole entry): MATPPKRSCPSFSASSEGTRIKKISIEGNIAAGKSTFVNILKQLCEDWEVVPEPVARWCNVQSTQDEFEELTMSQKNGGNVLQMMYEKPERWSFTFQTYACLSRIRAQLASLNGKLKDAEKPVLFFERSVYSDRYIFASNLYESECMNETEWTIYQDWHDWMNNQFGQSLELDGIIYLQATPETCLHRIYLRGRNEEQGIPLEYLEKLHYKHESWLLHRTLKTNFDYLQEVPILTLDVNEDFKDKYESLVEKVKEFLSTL

[6] = test system: mixture of 50% A375 NV and 50% A375 HS-tk cells; experiment: clonogenic assay of bystander effect, mixed cells at high density; type: cell-based, human; details: 10 μg/ml, 30 Gy
Experimental: Without wishing to be bound by any theory it is hypothesized that HSV-tk transduced tumor cells are able to sensitize non transduced tumor cells in their vicinity through a bystander effect via metabolic cooperation. Specifically, cells that are not transduced with HS-tk gene can also be sensitized to radiation. […] These cells were plated at a density of 3×10^6 cells per 100 cm^2 tissue culture dish the afternoon prior to adding 10 μg/ml BrdC to the media. […] In contrast the experimentally obtained survival for this mixture of cells when plated together at high density was only 6.2%.

[7] = test system: mammalian cells; details: cited from earlier work
[8] = irradiated (30 Gy) A375 tk preincubated with 10 μg/ml, before adjustment
[9] = non irradiated A375 tk, 10 μg/ml drug 48 h, compared to non-irradiated control cells not preincubated with drug

Sequence of Herpes pyrimidine nucleoside kinase (HSV-tk) (P0DTH5 whole entry): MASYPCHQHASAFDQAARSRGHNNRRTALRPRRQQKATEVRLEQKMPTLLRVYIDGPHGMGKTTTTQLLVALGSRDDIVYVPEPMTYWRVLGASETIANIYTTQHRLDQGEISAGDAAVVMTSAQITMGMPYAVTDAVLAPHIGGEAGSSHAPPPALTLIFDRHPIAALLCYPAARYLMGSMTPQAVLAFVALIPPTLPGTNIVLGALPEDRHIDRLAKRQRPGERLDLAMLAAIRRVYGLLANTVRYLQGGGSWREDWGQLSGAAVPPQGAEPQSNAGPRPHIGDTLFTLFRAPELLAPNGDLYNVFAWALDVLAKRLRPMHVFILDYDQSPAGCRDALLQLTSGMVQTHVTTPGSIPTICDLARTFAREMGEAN

SMILES	Km [1]	survival (figure legend) [2]	percent survival [2, 8]	survival [2, 9]	phosphorylation by mammalian thymidine kinase [3]	Km [5]	other results
Nc1ccn([C@H]2C[C@H](O)[C@@H](CO)O2)c(=O)n1 [Deoxycytidine, deoxycytidine, reference compound]	500 µM						
Nc1nc(=O)n([C@H]2C[C@H](O)[C@@H](CO)O2)cc1I [IdC, 5-iodo-2′-deoxycytidine]	2 µM	less than 10%	4.4%	54%	cannot phosphorylate	4000 µM	percent survival ([2]; irradiated (30 Gy) A375 tk preincubated with 1 μg/ml): 9.9%; radiation potentiation in the absence of the HS-tk gene ([4]; IdC 1 or 10 μg/ml, 30 Gy): no degree radiation potentiation was seen; percent survival ([4]; irradiated (30 Gy) A375 NV preincubated with 1 μg/ml): 19.3%; percent survival ([4]; irradiated (30 Gy) A375 NV preincubated with 10 μg/ml): 18.3%; survival ([4]; non irradiated A375 NV, 10 μg/ml drug 48 h, compared to non-irradiated control cells not preincubated with drug): 73%; survival (figure legend) ([4]; nontransformed cells treated with radiation): approximately 50%
Nc1nc(=O)n([C@H]2C[C@H](O)[C@@H](CO)O2)cc1Br [BrdC, 5-bromo-2′-deoxycytidine]	2 µM	less than 10%	2.3%	33%	cannot phosphorylate	2100 µM	survival ([2]; 100% A375 tk plated at 3×10^6 cells per dish (about 90% confluent), 10 μg/ml, 30 Gy): 3.5%; adjusted survival (irradiated survival divided by nonirradiated surviving fraction) ([2]; A375 tk, 10 μg/ml, 30 Gy): 6.9%; experimentally obtained survival of the mixture ([6]; 50% A375 tk and 50% A375 NV plated together at high density): 6.2%; expected survival of the mixture (half of tk plus half of NV survival) ([6]; 50% A375 tk and 50% A375 NV, theoretical): 8.3%; survival ([4]; 100% A375 NV plated at 3×10^6 cells per dish (about 90% confluent), 10 μg/ml, 30 Gy): 13.1%; adjusted survival (irradiated survival divided by nonirradiated surviving fraction) ([4]; A375 NV, 10 μg/ml, 30 Gy): 9%
O=C1NC(O)CCN1[C@@H]1O[C@H](CO)[C@@H](O)[C@H]1O (some centres unmarked) [Tetrahydrouridine, tetrahydrouridine]							safety in mammalian cells [7]: safe and non toxic
